Here are results for four compounds from patent US7977364B2, “Indazoles, benzisoxazoles and benzisothiazoles and their use as estrogenic agents” (Laboratoire Thermamex, priority 2004, dated 2011).

Where two headings read alike, the source gives them in different places.

Data set [1] concerns human endometrial adenocarcinoma Ishikawa cells. As to the kind of experiment: Estrogenic and anti-estrogenic activities in vitro: induction of alkaline phosphatase (APase) activity. The class given is cell-based. The note with it: for estrogenic effect in alkaline phosphatase activity in the Ishikawa cell model: in words; for EC50: Homo sapiens, Ishikawa, 96 h, compound alone, four days, ND = not detected, read-out: Estrogenic activity EC50 (nM) ± S.E.M. How it is done:
The estrogenic and anti-estrogenic potentials of new compounds were evaluated using the induction of alkaline phosphatase (APase) activity, an estrogen specific response in human endometrial adenocarcinoma Ishikawa cells (Botella J., J Steroid Biochem Molec Biol, 1995, 55: 77-84; Littlefield et al., Endocrinology, 1990, 127: 2757-2762).
Ishikawa cells were routinely grown as monolayers in Dulbecco's Modified Eagle's medium (DMEM) containing 4 mM Glutamax I and supplemented with 10% of decomplemented fetal calf serum (dFCS) and antibiotics. They were maintained in a humidified atmosphere of 5% CO2 and 95% air, at 37±0.1° C. Stocks were performed once a week to maintain continuous exponential growth.
For studies, Ishikawa cells were plated into 96-well microplates. The next day, the medium was changed to a phenol red-free DMEM containing 5% dFCS stripped of endogenous estrogens by dextran coated charcoal treatment.
At the end of the incubation period, APase activity was assayed by a method involving the hydrolysis of p-nitrophenyl phosphate to p-nitrophenol at pH 9.8 and spectrophotometric determination of the product at 405 nm.
In brief, the microplates were first rinsed twice with cold phosphate buffered solution and then placed at −80° C. for at least 15 minutes. After thawing at room temperature for 5-10 minutes, the plates were put on ice and 50 μl ice-cold solution containing 5 mM p-nitrophenyl phosphate was added to each well. The plates were warmed to room temperature to allow for the development of the enzymatic reaction (t0). After a 15 to 60 minute incubation period, the intensity of the yellow color generated by the production of p-nitrophenol was measured into each well at 405 nm using a microplate reader (Wallac, model 1420 Victor^2). […] Sigmoidal dose-response curves were plotted and EC50 (estrogenic effect) and IC50 (anti-estrogenic effect) values were calculated for each compound.

For data set [2], the system named is human breast cancer cell line MCF-7. As to the kind of experiment: Proliferative activity in vitro (ATP luminescence, 6 days). It is filed as cell-based. The note with it: Homo sapiens, MCF7, 144 h; for activity at 1 µM: MCF-7, 10^−6 M, read-out: Effect at 10^−6 M (% of control); for activity at 1 µM / activity at 0.01 µM: six days; for activity at 0.01 µM: MCF-7, 10^−8 M, read-out: Effect at 10^−8 M (% of control); for EC50: read-out: Cell proliferation EC50 (nM) ± S.E.M. Here is the method: The proliferative effect of the compounds of the invention was evaluated on human breast cancer cell line MCF-7 by measuring the number of viable cells after 6 days of treatment.
MCF-7 cells were routinely cultured as monolayers in Dulbecco's modified Eagle's medium (DMEM) containing 4 mM Glutamax and 4.5 g/l glucose and supplemented with 5% (v/v) decomplemented fetal calf serum (dFCS) and antibiotics.
Cells were plated at 2.10^6 cells/75 cm^2 flasks and incubated at 37° C. in a humidified atmosphere containing 5% CO2. They were passaged once weekly to maintain continuous exponential growth. Forty eight hours before the start of an experiment, near-confluent cells were changed to a phenol red free DMEM containing 5% steroid-stripped dFCS by dextran coated charcoal treatment (DCC-DMEM). On the day of the experiment, cells were harvested by brief exposure to trypsin and plated in DCC-DMEM in 96-well microplates at a density of 4.10^3 cells/well. The next day, the medium was renewed and test compounds, diluted appropriately in estrogen-free DMEM, were added and incubated for six days. […] At the end of the incubation period, cell proliferation was evaluated by quantitation of the cellular ATP content which signals the presence of metabolically active cells.
The assay, based on the ATP-dependent luciferase reaction, enables generation of a luminescent signal proportional to the amount of ATP present. As there is a linear relationship between the amount of ATP and the number of viable cells present in culture, the luminescent signal allowed to precisely evaluate cell proliferation (Crouch, S. P. M. et al. J. Immunol. Meth., 1993, 160, 81; Kangas, L. et al. Med. Biol. 1984, 62, 338; Petty, R. D. et al. J. Biolum. Chemilum. 1995, 10, 29).
In brief, the microplates were inverted to discard the culture medium and 100 μl of fresh medium was added into each well. The microplates were equilibrated at room temperature for approximately 30 minutes. 100 μl of luciferase reagent was added into each well and contents were mixed for 2 minutes to induce cell lysis. The plates were incubated at room temperature for 10 minutes to stabilize luminescence signal.
Luminescence was recorded using a microplate reader (Wallac, model 1420 Victor^2) and results were expressed as percentage of the control luminescence. Sigmoidal dose-response curves were plotted and EC50 values were calculated for each compound in order to evaluate their proliferative potency.

A further data set has as its system Prepubescent female rats. As to the kind of experiment: Estrogenic / uterotrophic activity in vivo (uterus wet weight). The conditions noted are these: Rattus norvegicus, po, 72 h, orally 3 mg/rat/day for 3 days, read-out: % stimulation vs vehicle (uterus weight). The arrangement: species or system rat. Here is the method:
Prepubescent female rats were orally treated at 3 mg/rat/day for 3 days. On the day following the last treatment, uteri were removed and wet weights were recorded.
The results are expressed as % of stimulation of uterus weight in comparison with vehicles. […]
Prepubescent female rats were orally treated with 0.3; 1; 3 or 10 mg/rat/day for 3 days. On the day following the last treatment, uteri were removed and wet weights were recorded.

Data set [3] addresses T1, purified full-length recombinant human ERα (Homo sapiens, UniProt P03372).
T1 sequence (P03372 1-595): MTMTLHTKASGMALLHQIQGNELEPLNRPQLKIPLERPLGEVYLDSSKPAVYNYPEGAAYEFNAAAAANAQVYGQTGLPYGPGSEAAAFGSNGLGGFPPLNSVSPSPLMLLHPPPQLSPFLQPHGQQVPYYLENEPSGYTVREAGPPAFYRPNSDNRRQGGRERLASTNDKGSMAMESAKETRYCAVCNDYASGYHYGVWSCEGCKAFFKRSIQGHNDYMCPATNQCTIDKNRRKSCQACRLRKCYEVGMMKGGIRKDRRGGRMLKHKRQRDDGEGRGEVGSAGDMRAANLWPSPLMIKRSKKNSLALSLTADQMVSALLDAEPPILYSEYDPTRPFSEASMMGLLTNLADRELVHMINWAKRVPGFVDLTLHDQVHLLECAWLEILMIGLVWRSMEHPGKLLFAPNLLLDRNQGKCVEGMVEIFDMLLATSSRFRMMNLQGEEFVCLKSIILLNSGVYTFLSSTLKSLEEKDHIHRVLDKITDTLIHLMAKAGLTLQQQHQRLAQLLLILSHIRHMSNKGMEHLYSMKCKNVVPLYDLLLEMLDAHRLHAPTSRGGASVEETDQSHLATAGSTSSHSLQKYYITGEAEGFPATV
As to the kind of experiment: Estrogen receptor α competitive radiometric binding assay ([3H]-E2). The note with it: for RBA (%) Mean ± S.E.M, ER α: ratio of IC50s of E2 and competitor, E2 set at 100%.
Experimental: Relative binding affinities (RBA) were determined by competitive radiometric binding assays, using purified full-length recombinant human ERα and ERβ (PanVera, Madison, Wis.). […] After shaking for a few seconds and centrifugation at 1500 g and 4° C. for 10 minutes, 150 μl/well of Optiphase ‘Super Mix’ scintillation liquid was mixed with 50 μl of supernatant of each sample and the radioactivity was measured in a MicroBeta counter (Wallac, Turku, Finland). Data were evaluated by a sigmoidal dose-response curve (Prism, GraphPad Software Inc.) to estimate the concentration of competitor at half-maximal specific binding (IC50). […] The selectivity for ERα and ERβ was obtained from the ratio R of the IC50 for ERα to the IC50 for ERβ for each test compound.

Data set [4] concerns the target purified full-length recombinant human ERβ (Homo sapiens, UniProt Q92731). As to the kind of experiment: Estrogen receptor β competitive radiometric binding assay ([3H]-E2). The conditions noted are these: for selectivity for the human recombinant estrogen receptor β: in words; for RBA (%) Mean ± S.E.M, ER β: ratio of IC50s of E2 and competitor, E2 set at 100%; for R (IC50s) αβ: ratio of the IC50 for ERα to the IC50 for ERβ.

The subject of a further data set is rats. As to the kind of experiment: Forced swimming test (antidepressant activity, immobility duration). The class given is in vivo, rat. An excerpt: Antidepressant effect of estradiol was recently reported in studies using ER β KO mice model. In addition, ER β localization in dorsal raphe nucleus area in rat has been described. The gold standard test for antidepressant potency of compound consist in the forced swimming test, in this experiment antidepressants could be distinguished from psychostimulants which decreased immobility at doses which increased general activity. In order to investigate the putative antidepressant potency of the compounds reported here, the forced swimming test was performed according to the following design. The animals were housed six per cage under standard colony conditions, with a 12 h light/dark cycle and ad libitum food and water. They were allowed to acclimatize to the colony for at least 7 days prior to any experimentation. For subcutaneous administration, the compound of Example 23 was dissolved in olive oil and diluted to the desired concentration on the day of administration. For positive control, intraperitoneal (i.p.) injection of desipramine was done. Desipramine was dissolved in double-distilled water (10 mg/kg). The experiments were conducted 30 min after the positive control drug treatment (only for desipramine treatment). Other compounds, ie: estradiol and the compound of Example 23 were daily injected subcutaneously in rats, during a 7 days period. Acquisition were performed on day 8 (24 h after the last administration of items) and day 9 (48 h after estradiol or compound 23 administration), respectively. Data acquired 24 hours after the last administration consisted in the “naïve animal group”, these animals had never been previously tested in the device. Data acquired 48 hours after a last administration of compounds consisted in “trained animal group”.
On the 8th, the forced swim test was performed. This study was carried out in rats according to the methods described by Porsolt (Eur. J. Pharm., 1978). Briefly, rats were placed individually in glass cylinders (height: 40 cm, diameter: 18 cm) containing 25 cm of water at 25° C. Ten minutes later, rats were removed and dried before being returned to their home cages. The animals were replaced in the cylinders 24 h later, and the procedure was repeated, and a 10-min observation period was recorded.

A further data set concerns ovariectomized rats. As to the kind of experiment: Hot flush model in vivo: tail skin temperature, uteri and body weight. The conditions noted are these: 3 mg/rat/day.

Chain of purified full-length recombinant human ERβ (Q92731 whole entry): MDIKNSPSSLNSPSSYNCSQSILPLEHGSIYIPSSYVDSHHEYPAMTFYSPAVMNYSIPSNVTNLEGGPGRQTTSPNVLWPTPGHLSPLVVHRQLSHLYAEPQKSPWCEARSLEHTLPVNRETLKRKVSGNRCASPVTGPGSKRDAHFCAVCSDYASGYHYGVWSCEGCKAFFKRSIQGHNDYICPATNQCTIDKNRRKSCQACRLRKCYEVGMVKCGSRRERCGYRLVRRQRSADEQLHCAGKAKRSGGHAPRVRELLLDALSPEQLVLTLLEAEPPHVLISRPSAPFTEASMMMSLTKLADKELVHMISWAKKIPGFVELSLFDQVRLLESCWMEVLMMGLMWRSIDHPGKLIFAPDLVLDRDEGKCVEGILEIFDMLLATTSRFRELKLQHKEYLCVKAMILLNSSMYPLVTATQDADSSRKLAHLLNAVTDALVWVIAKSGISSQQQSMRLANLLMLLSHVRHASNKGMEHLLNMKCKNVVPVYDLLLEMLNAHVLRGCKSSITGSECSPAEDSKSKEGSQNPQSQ

One may read the melting point as the temperature of the solid-liquid transition. The term IC50 denotes the concentration that gives 50% inhibition. Consider `N#CC(Cc1ccc(O)c(O)c1)c1noc2cc(O)ccc12` (stereo not shown) [Ex 86, 2-(6-hydroxy-1,2-benzisoxazol-3-yl)-3-(3,4-dihydroxyphenyl) propanenitrile], for which the melting point is 154 °C. Also, the “estrogenic effect in alkaline phosphatase activity in the Ishikawa cell model” value in data set [1] was “weak estrogenic effect”. In data set [2], the activity at 1 µM came out at 139% and the activity at 0.01 µM turned out to be 85.6%. Moreover, the EC50 in data set [2] (MCF-7, six days) turned out to be 466 ± 34 nM. Moreover, in the data set with Prepubescent female rats (Table 4), the change in vivo at 3 mg is 25%. Besides, in data set [3], the IC50 amounted to 1890 ± 365 nM and the “RBA (%) Mean ± S.E.M, ER α” value stood at 0.2 ± 0.03%. In addition, in data set [4], the IC50 is 135 ± 31 nM; the “selectivity for the human recombinant estrogen receptor β” value is “marked selectivity”; the “RBA (%) Mean ± S.E.M, ER β” value amounted to 2.4 ± 0.4%; the “R (IC50s) αβ” value came to 14.1.
In turn, `Oc1ccc2c(C3CCCCC3)nsc2c1` [Ex 93, 3-cyclohexyl-1,2-benzisothiazol-6-ol] had a melting point of 190 °C. For the same compound, in data set [1], the EC50 worked out at 124 ± 8.9 nM and the “estrogenic effect in alkaline phosphatase activity in the Ishikawa cell model” value is “weak estrogenic effect”. In data set [2], the activity at 1 µM worked out at 156% and the activity at 0.01 µM is 116%. Besides, the EC50 in data set [2] (MCF-7, six days) is 16.1 ± 2.6 nM. The change in vivo at 3 mg with Prepubescent female rats (Table 4) came out at 88%. Moreover, in data set [3], the IC50 was 88.6 ± 11.7 nM and the “RBA (%) Mean ± S.E.M, ER α” value is reported as 1.3 ± 0.2%. Besides, in data set [4], the IC50 came out at 37.8 ± 5.4 nM; the “selectivity for the human recombinant estrogen receptor β” value is reported as “marked selectivity”; the “RBA (%) Mean ± S.E.M, ER β” value was 5.1 ± 0.8%; the “R (IC50s) αβ” value was found to be 2.3.
Consider `C[C@]12CC[C@@H]3c4ccc(O)cc4CC[C@H]3[C@@H]1CC[C@@H]2O` [Example E2, 17β-estradiol, reference compound], for which the EC50 in data set [1] amounted to 0.1 ± 0.05 nM. Moreover, in data set [2], the EC50 is 0.01 nM, the activity at 1 µM came out at 205% and the activity at 0.01 µM came out at 212%. The change in vivo at 3 mg in the data set on Prepubescent female rats (Table 4) is 526%. For the same compound, in the data set with Prepubescent female rats (Table 5), the change in vivo at 3 mg amounted to 333%. For the same compound, the “immobility duration, Naïve animals” value in the data set with rats (0.007 mg/rat/day s.c. 7 days, 24 h after last administration, 10 minutes test) amounted to 22.5 ± 7.1 s. In addition, the “immobility duration, Trained animals” value in the data set with rats (0.007 mg/rat/day s.c. 7 days, 48 h after last administration, 10 minutes test) turned out to be 79.2 ± 23.0 s. Further, the antidepressor potency entry with rats (24 h and 48 h after administration, in words) was “confirmation of the antidepressor potency”. Besides, in the data set on ovariectomized rats, the “TST Variation day 1 vs day 0” value is listed as −4.8 C. °, the “TST Variation day 4 vs day 0” value is given as −3.5 C. ° and the “TST Variation day 7 vs day 0” value is on record as −5.6 C. °. In addition, in the data set on ovariectomized rats (after one week treatment), the “Body weights (% increase vs vehicle)” value was −10% and the “Uteri weight (% increase vs vehicle)” value amounted to 273%.
As for `CNCCCN1c2ccccc2CCc2ccccc21` [desipramine, reference compound], the “immobility duration, Trained animals” value with rats (dosage 30 (mg/rat/day) as in table, i.p., 30 min before test, 10 minutes test) stood at 2.6 ± 1.5 s.
